Measurements from the NIST ThermoML archive (doi:10.1021/je0302304).
Numbers after ± are expanded uncertainties.

Key:
[1] = 101.32 kPa, Liquid
[2] = refractive index (Na D-line) (dimensionless); conditions: 101.33 kPa, Liquid, Standard Abbe refractometry
[3] = xn = mol fraction of the nth substance listed; conditions: 101.32 kPa, Liquid, x2 = 0
[4] = refractive index (Na D-line) (dimensionless); xn = mol fraction of the nth substance listed; conditions: 101.32 kPa, Liquid, Standard Abbe refractometry, x2 = 0

SMILES	mass density ([1]; 288.15 K) [kg/m3]	mass density ([1]; 298.15 K) [kg/m3]	mass density ([1]; 308.15 K) [kg/m3]	mass density ([1]; 318.15 K) [kg/m3]	refractive index ([2]; 288.15 K)	refractive index ([2]; 298.15 K)	refractive index ([2]; 308.15 K)	refractive index ([2]; 318.15 K)	mass density ([3]; 288.15 K) [kg/m3]	mass density ([3]; 298.15 K) [kg/m3]	mass density ([3]; 308.15 K) [kg/m3]	mass density ([3]; 318.15 K) [kg/m3]	refractive index ([4]; 288.15 K)	refractive index ([4]; 298.15 K)	refractive index ([4]; 308.15 K)	refractive index ([4]; 318.15 K)
COCCOC [1,2-dimethoxyethane]	872.4 ± 0.3	861.5 ± 0.3	850.4 ± 0.4	839.2 ± 0.4	1.3824 ± 0.0005	1.3772 ± 0.0005	1.3722 ± 0.0005	1.3672 ± 0.0005								
COCCOCCOCCOCCOC [2,5,8,11,14-pentaoxapentadecane]	1016 ± 0.3	1006.6 ± 0.3	997.4 ± 0.3	988.1 ± 0.3	1.4344 ± 0.0003	1.4303 ± 0.0003	1.4262 ± 0.0003	1.4221 ± 0.0003								
COCCOCCOCCOC [2,5,8,11-tetraoxadodecane]	989.7 ± 0.4	980.1 ± 0.4	970.7 ± 0.4	961.1 ± 0.4	1.425 ± 0.0005	1.4209 ± 0.0005	1.4167 ± 0.0005	1.4125 ± 0.0005								
COCCOCCOC [2,5,8-trioxanonane]	948.6 ± 0.3	938.7 ± 0.3	928.7 ± 0.3	918.6 ± 0.3	1.4101 ± 0.0005	1.4058 ± 0.0005	1.4012 ± 0.0005	1.3968 ± 0.0005								
CCO [ethanol]	793.6 ± 0.5	785.2 ± 0.5	776.6 ± 0.5	767.9 ± 0.5	1.3632 ± 0.0005	1.3591 ± 0.0005	1.3551 ± 0.0005	1.3509 ± 0.0005								
CCO [ethanol] + COCCOC									793.6 ± 0.5	785.2 ± 0.5	776.6 ± 0.5	767.9 ± 0.5	1.3632 ± 0.0005	1.3591 ± 0.0005	1.3551 ± 0.0005	1.3509 ± 0.0005
CCO [ethanol] + COCCOCCOC									793.6 ± 0.5	785.2 ± 0.5	776.6 ± 0.5	767.9 ± 0.5	1.3632 ± 0.0005	1.3591 ± 0.0005	1.3551 ± 0.0005	1.3509 ± 0.0005
CCO [ethanol] + COCCOCCOCCOC									793.6 ± 0.5	785.2 ± 0.5	776.6 ± 0.5	767.9 ± 0.5	1.3632 ± 0.0005	1.3591 ± 0.0005	1.3551 ± 0.0005	1.3509 ± 0.0005
CCO [ethanol] + COCCOCCOCCOCCOC									793.6 ± 0.5	785.2 ± 0.5	776.6 ± 0.5	767.9 ± 0.5	1.3632 ± 0.0003	1.3591 ± 0.0003	1.3551 ± 0.0003	1.3509 ± 0.0003
